How the values were obtained:
[1] = Protein binding in Han-Wistar rat plasma at 1 mg/kg, iv by LC-MS/MS analysis; type: ADME, organism-based; details: read-out: PPB (converted)
[2] = Half life in Han-Wistar rat at 1 mg/kg, iv by LC-MS/MS analysis; type: ADME, organism-based; details: in vivo
[3] = Clearance in Han-Wistar rat blood at 1 mg/kg, iv by LC-MS/MS analysis; type: ADME, organism-based; details: whole blood
[4] = Volume of distribution at steady state in Han-Wistar rat at 1 mg/kg, iv by LC-MS/MS analysis; type: ADME, organism-based; details: in vivo, read-out: Vdss
[5] = Half life of the compound at pH 6 under oxidative condition; type: physicochemical
[6] = Stability of the compound in presence of light measured after 12 hrs; type: physicochemical; details: read-out: Stability
serum albumin = serum albumin (Homo sapiens, UniProt P02768); assay: Binding affinity to human serum albumin by HPLC analysis; type: ADME; details: read-out: PB (converted)
serum albumin, sequence (P02768 whole entry): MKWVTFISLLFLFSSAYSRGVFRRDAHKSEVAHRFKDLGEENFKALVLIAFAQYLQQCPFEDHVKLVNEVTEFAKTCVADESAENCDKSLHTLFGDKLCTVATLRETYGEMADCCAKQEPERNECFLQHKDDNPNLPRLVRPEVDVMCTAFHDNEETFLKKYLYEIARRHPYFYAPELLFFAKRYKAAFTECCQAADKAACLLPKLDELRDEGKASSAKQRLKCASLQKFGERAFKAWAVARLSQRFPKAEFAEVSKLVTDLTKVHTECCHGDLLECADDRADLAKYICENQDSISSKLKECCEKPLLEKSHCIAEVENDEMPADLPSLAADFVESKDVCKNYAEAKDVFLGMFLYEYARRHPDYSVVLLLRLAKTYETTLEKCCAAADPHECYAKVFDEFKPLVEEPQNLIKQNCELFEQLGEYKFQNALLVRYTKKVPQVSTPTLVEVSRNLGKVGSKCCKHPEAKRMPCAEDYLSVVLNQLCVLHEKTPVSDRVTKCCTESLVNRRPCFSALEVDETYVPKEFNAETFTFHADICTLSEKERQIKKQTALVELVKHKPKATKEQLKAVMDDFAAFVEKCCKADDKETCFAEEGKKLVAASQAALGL

[7] = Lipophilicity, log D of the compound at pH 7.4 by RP-HPLC analysis; type: physicochemical; details: buffer
[8] = Protein binding in human plasma; type: ADME, cell-free; details: read-out: PPB (converted)
[9] = Solubility of the compound in saline measured after 24 hrs; type: physicochemical
[10] = Permeability of the compound by PAMPA; type: physicochemical; details: read-out: permeability
[11] = target: T1, Kynurenine 3-monooxygenase (Homo sapiens, UniProt O15229); assay: Inhibition of full length human GST-tagged KMO expressed in baculovirus infected Sf9 insect cell membranes using kynurenine as substrate measured after 1 hr by RapidFire high-throughput mass spectrometric analysis
Target sequence in this assay (O15229 whole entry): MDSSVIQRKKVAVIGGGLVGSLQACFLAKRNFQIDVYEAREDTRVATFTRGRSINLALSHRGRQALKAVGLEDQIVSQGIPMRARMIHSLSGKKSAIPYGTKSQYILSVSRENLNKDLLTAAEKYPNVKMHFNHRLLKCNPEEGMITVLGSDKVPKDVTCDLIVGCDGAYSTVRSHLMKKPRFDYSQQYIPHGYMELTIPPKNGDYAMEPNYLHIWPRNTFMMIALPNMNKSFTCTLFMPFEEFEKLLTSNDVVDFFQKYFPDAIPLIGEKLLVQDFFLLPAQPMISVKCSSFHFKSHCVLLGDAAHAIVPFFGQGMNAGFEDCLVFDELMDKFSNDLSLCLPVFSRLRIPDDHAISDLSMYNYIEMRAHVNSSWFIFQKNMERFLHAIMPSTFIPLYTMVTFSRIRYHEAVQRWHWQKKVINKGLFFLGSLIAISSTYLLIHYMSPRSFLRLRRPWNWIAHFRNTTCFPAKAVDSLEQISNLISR

[12] = target: T1, Kynurenine 3-monooxygenase
Target sequence in this assay (O15229 whole entry): as above

[13] = target: T1, Kynurenine 3-monooxygenase; remark: listed apart in the source
Target sequence in this assay (O15229 whole entry, looked up): as the sequence (O15229 whole entry) above

Compound | fraction unbound (serum albumin) | logD [7] | fraction unbound [8] | Papp [10] | other results
Cc1ccc([C@@H](C)Oc2cc3onc(CCC(=O)O)c3cc2Cl)nc1 | – | – | – | – | fraction unbound [1]: 0.009; half-life [2]: 3.6 h; clearance [3]: 1.1 mL/min/kg; Vd [4]: 0.31 L/kg; half-life [5]: > 1000 h; remaining at 12 h [6]: 96.5%
C[C@@H](Oc1cc2onc(CCC(=O)O)c2cc1Cl)c1ccc(Cl)cn1.NC(CO)(CO)CO | 0.01 | 2.91 | 0.002 | – | solubility at 24 h [9]: > 620 µg/mL
COc1cc2oc(=O)n(CCC(=O)O)c2cc1Cl | 0.11 | – | – | < 0.3 ×10⁻⁶ cm/s | –
Cc1ccnc([C@@H](C)Oc2cc3oc(=O)n(CCC(=O)O)c3cc2Cl)c1.NC(CO)(CO)CO | 0.056 | 2.15 | – | < 0.3 ×10⁻⁶ cm/s | –
NC(CO)(CO)CO.O=C(O)CCn1c(=O)oc2cc(OCc3ccccn3)c(Cl)cc21 | 0.126 | 1.32 | 0.074 | 1.1 ×10⁻⁶ cm/s | IC50 [11]: 3.16 nM; IC50 [12]: 5010 nM
Cc1cc2oc(=O)n(CCC(=O)O)c2cc1Cl.NC(CO)(CO)CO | 0.05 | 1.26 | – | 0.3 to 1 ×10⁻⁶ cm/s | solubility at 24 h [9]: > 127000 µg/mL; IC50 [12]: 631 nM
Cc1ccc([C@@H](C)Oc2cc3onc(CCC(=O)O)c3cc2Cl)nc1.NC(CO)(CO)CO | 0.016 | 2.42 | 0.003 | – | solubility at 24 h [9]: > 860 µg/mL
O=C(O)CCn1c(=O)oc2cc(OCc3ccccn3)c(Cl)cc21 [listing 1 of 2 here] | – | – | – | – | Ki [11]: 1 nM
NC(CO)(CO)CO.O=C(O)CCn1c(=O)oc2cc(OCCN3CCCC3)c(Cl)cc21 | 0.849 | -0.26 | – | < 0.3 ×10⁻⁶ cm/s | –
CCOc1cc2oc(=O)n(CCC(=O)O)c2cc1Cl.NC(CO)(CO)CO | 0.113 | 1.49 | 0.042 | < 1 ×10⁻⁶ cm/s | solubility at 24 h [9]: > 1880 µg/mL
Cc1cccc([C@@H](C)Oc2cc3oc(=O)n(CCC(=O)O)c3cc2Cl)n1.NC(CO)(CO)CO | 0.068 | 2.12 | – | 2.1 ×10⁻⁶ cm/s | –
C[C@@H](Oc1cc2onc(CCC(=O)O)c2cc1Cl)c1ccc(Cl)cn1 | – | – | – | – | fraction unbound [1]: 0.003; half-life [2]: 8.7 h; clearance [3]: 0.35 mL/min/kg; Vd [4]: 0.26 L/kg; half-life [5]: > 1000 h; remaining at 12 h [6]: 99.5%
Cc1cc2oc(=O)n(CCC(=O)O)c2cc1Cl | – | – | 0.024 | – | fraction unbound [1]: 0.045; half-life [2]: 3.7 h; clearance [3]: 4.7 mL/min/kg; Vd [4]: 0.52 L/kg; half-life [5]: > 1000 h; remaining at 12 h [6]: 100%
C[C@@H](Oc1cc2oc(=O)n(CCC(=O)O)c2cc1Cl)c1ccc(F)cn1.NC(CO)(CO)CO | 0.06 | 1.98 | – | 3.1 ×10⁻⁶ cm/s | –
Cc1ccc([C@@H](C)Oc2cc3oc(=O)n(CCC(=O)O)c3cc2Cl)nc1.NC(CO)(CO)CO | – | 2.02 | 0.022 | 2.2 ×10⁻⁶ cm/s | –
C[C@@H](Oc1cc2oc(=O)n(CCC(=O)O)c2cc1Cl)c1ccc(Cl)cn1.NC(CO)(CO)CO | 0.021 | 2.65 | 0.01 | 6 ×10⁻⁶ cm/s | –
O=C(O)CCn1c(=O)oc2cc(OCc3ccccc3)c(Cl)cc21 | 0.017 | 2.71 | – | – | –
O=C(O)CCn1c(=O)oc2cc(OCC3CC3)c(Cl)cc21 | – | – | – | – | fraction unbound [1]: 0.098; half-life [2]: 0.68 h; clearance [3]: 4.1 mL/min/kg; Vd [4]: 0.26 L/kg; half-life [5]: > 1000 h; remaining at 12 h [6]: 105%

Compound | fraction unbound (serum albumin) | logD [7] | fraction unbound [8] | Papp [10] | other results
C[C@@H](Oc1cc2oc(=O)n(CCC(=O)O)c2cc1Cl)c1ncco1.NC(CO)(CO)CO | 0.227 | 1.11 | – | < 0.3 ×10⁻⁶ cm/s | –
O=C(O)CCn1c(=O)oc2cc(OCc3ccccn3)c(Cl)cc21 [listing 2 of 2 here] | – | – | – | – | T1/2 [13]: 0.5 h
CC(C)Cc1cc2oc(=O)n(CCC(=O)O)c2cc1Cl.NC(CO)(CO)CO | 0.008 | 3.03 | – | < 1 ×10⁻⁶ cm/s | –
CCOc1cc2oc(=O)n(CCC(=O)O)c2cc1Cl | – | – | – | – | fraction unbound [1]: 0.184; half-life [2]: 0.43 h; clearance [3]: 16 mL/min/kg; Vd [4]: 0.36 L/kg; half-life [5]: > 1000 h; remaining at 12 h [6]: 99.5%
O=C(O)CCn1c(=O)oc2cc(Cl)c(Cl)cc21 | 0.037 | 1.61 | 0.018 | 2.4 ×10⁻⁶ cm/s | fraction unbound [1]: 0.083; half-life [2]: 4.3 h; clearance [3]: 4.3 mL/min/kg; Vd [4]: 0.28 L/kg; half-life [5]: 334 h; remaining at 12 h [6]: 41%
COCCOc1cc2oc(=O)n(CCC(=O)O)c2cc1Cl.NC(CO)(CO)CO | 0.558 | 0.88 | 0.293 | < 0.3 ×10⁻⁶ cm/s | –
Cc1ccc([C@@H](C)Oc2cc3onc(CCC(=O)O)c3cc2Cl)nn1 | 0.108 | 2.97 | 0.071 | – | fraction unbound [1]: 0.067; half-life [2]: 1.5 h; clearance [3]: 12 mL/min/kg; Vd [4]: 1.1 L/kg; half-life [5]: > 1000 h; remaining at 12 h [6]: 85.2%; IC50 [12]: 3.16 nM
NC(CO)(CO)CO.O=C(O)CCn1c(=O)oc2cc(OCC3CCC3)c(Cl)cc21 | 0.019 | 2.9 | 0.019 | 1.2 ×10⁻⁶ cm/s | –
C[C@@H](Oc1cc2oc(=O)n(CCC(=O)O)c2cc1Cl)c1ncccn1.NC(CO)(CO)CO | 0.409 | 0.83 | – | < 0.3 ×10⁻⁶ cm/s | –
C[C@@H](Oc1cc2oc(=O)n(CCC(=O)O)c2cc1Cl)c1ccccn1 [listing 1 of 2 here] | – | – | – | – | fraction unbound [1]: 0.215; half-life [2]: 5.6 h; clearance [3]: 16.8 mL/min/kg; Vd [4]: 2.96 L/kg; half-life [5]: > 1000 h; remaining at 12 h [6]: 99.2%
NC(CO)(CO)CO.O=C(O)CCn1c(=O)oc2cc(OC3CC3)c(Cl)cc21 | 0.057 | 1.64 | 0.031 | 1.5 ×10⁻⁶ cm/s | IC50 [11]: 3.16 nM; solubility at 24 h [9]: > 2400 µg/mL; IC50 [12]: 1260 nM
Cc1ccc([C@@H](C)Oc2cc3onc(CCC(=O)O)c3cc2Cl)nn1.NC(CO)(CO)CO | – | – | – | – | solubility at 24 h [9]: 230 µg/mL
NC(CO)(CO)CO.O=C(O)CCn1c(=O)oc2cc(Cl)c(Cl)cc21 | – | – | – | – | solubility at 24 h [9]: 270 µg/mL
C[C@@H](Oc1cc2oc(=O)n(CCC(=O)O)c2cc1Cl)c1ccccn1 [listing 2 of 2 here] | – | – | – | – | T1/2 [13]: 2 h
NC(CO)(CO)CO.O=C(O)CCn1c(=O)oc2cc(OCC3CC3)c(Cl)cc21 | 0.038 | 2.09 | 0.04 | 1.9 ×10⁻⁶ cm/s | IC50 [11]: 10 nM; solubility at 24 h [9]: > 2060 µg/mL; IC50 [12]: 1580 nM
CCc1cc2oc(=O)n(CCC(=O)O)c2cc1Cl.NC(CO)(CO)CO | 0.026 | 1.94 | 0.013 | 1 to 2.2 ×10⁻⁶ cm/s | –
O=C(O)CCn1c(=O)oc2cc(OC3CC3)c(Cl)cc21 | – | – | – | – | fraction unbound [1]: 0.097; half-life [2]: 0.39 h; clearance [3]: 9.4 mL/min/kg; Vd [4]: 0.29 L/kg; half-life [5]: > 1000 h; remaining at 12 h [6]: 100%

More lines, main results first:

fraction unbound (serum albumin) | logD [7] | fraction unbound [8] | Papp [10] | Compound | other results
0.084 | 1.79 | – | < 0.3 ×10⁻⁶ cm/s | C[C@H](Oc1cc2oc(=O)n(CCC(=O)O)c2cc1Cl)c1ccccn1.NC(CO)(CO)CO | –
– | 1.99 | 0.022 | – | C[C@@H](Oc1cc2onc(CCC(=O)O)c2cc1Cl)c1ccccn1.NC(CO)(CO)CO | solubility at 24 h [9]: > 7440 µg/mL
– | 1.56 | 0.075 | – | C[C@@H](Oc1cc2c(cc1Cl)N(CCC(=O)O)C(=O)CO2)c1ccccn1 | –
– | 1.81 | – | – | C[C@@H](Oc1cc2sc(=O)n(CCC(=O)O)c2cc1Cl)c1ccccn1 | –
0.017 | 2.47 | – | – | C[C@@H](Oc1cc2onc(CCC(=O)O)c2cc1Cl)c1ccc(F)cn1 | –
0.409 | 0.83 | 0.319 | < 0.3 ×10⁻⁶ cm/s | C[C@@H](Oc1cc2oc(=O)n(CCC(=O)O)c2cc1Cl)c1cccnn1 | IC50 [11]: 1.26 nM; IC50 [12]: 631 nM
0.129 | 1.86 | 0.183 | < 0.3 ×10⁻⁶ cm/s | CC(Oc1cc2oc(=O)n(CCC(=O)O)c2cc1Cl)c1ccccn1.NC(CO)(CO)CO (centres undefined) | –
– | 1.7 | 0.099 | – | C[C@@H](Oc1cc2cnn(CCC(=O)O)c2cc1Cl)c1ccccn1 | –
– | 2.17 | – | – | C[C@@H](Oc1cc2ccn(CCC(=O)O)c2cc1Cl)c1ccccn1 | –
0.067 | 1.71 | 0.119 | 0.3 to 2 ×10⁻⁶ cm/s | C[C@@H](Oc1cc2oc(=O)n(CCC(=O)O)c2cc1Cl)c1ccccn1.NC(CO)(CO)CO | solubility at 24 h [9]: > 9500 µg/mL

— ChEMBL document CHEMBL4049435, “Development of a Series of Kynurenine 3-Monooxygenase Inhibitors Leading to a Clinical Candidate for the Treatment of Acute Pancreatitis” (J Med Chem, 2017)
